Assay results from US5885994A, “Tetrahydroquinoxaline dopamine D4 receptor antagonists” (Warner-Lambert Company, priority 1998, dated 1999).

How the values were obtained:
[1] = tested on: locomotor activity; experiment: Behavioral activity (locomotor activity) in the Omnitech Digiscan Animal Activity Monitors; type: in vivo, mice and rats
Description: PROTOCOL FOR THE BEHAVIORAL ACTIVITY ASSESSMENT OF MICE AND RATS IN THE OMNITECH DIGISCAN ANIMAL ACTIVITY MONITORS
The purpose of this test is to evaluate compounds for antipsychotic-like central nervous system (CNS) effects and a variety of other behavioral effects generally associated with CNS activity. […] Generally, however, drug effects on behavior are assessed using total distance traveled (in cm) as the most accurate measure of locomotor activity.
Male CD-1 albino mice weighing 20 to 40 g (Charles River Laboratories) or male Sprague-Dawley rats weighing 150 to 300 g (Harlan Laboratories) are used for these studies. […] Drug doses are expressed as the active moiety (taking into account the salt vs free base molecular weight of the drug). […]
Once the animal is placed in the activity chamber, the chambers are individually activated to begin collecting data. Activity levels are generally monitored with the overhead lights turned off, as the dark-stimulation tends to produce less variation in the data. […]
Data can be expressed as either actual counts, time (in sec), centimeters traveled, or percent inhibition of activity relative to vehicle-treated control animals tested concurrently. Significant changes in activity (i.e., cm traveled), relative to controls, are determined by t-test or analysis of variance and Newman-Keul's multiple-range test. […]

[2] = tested on: synthesis rates of rat brain catecholamines; details: ip
Description: The effects of compounds on synthesis rates of rat brain catecholamines were estimated by measuring the accumulation of [3-(3,4-dihydroxyphenyl)-L-alanine (DOPA) after administration of the L-aromatic amino acid decarboxylase inhibitor, NSD 1015 (Pugsley, et al., 1995).
Test compounds were administered to rats i.p. 30 minutes before the injection of the L-aromatic amino acid decarboxylase inhibitor, NSD 1015 (100 mg/kg i.p.). Rats were sacrificed by decapitation 30 minutes later. The striatum and mesolimbic regions were rapidly dissected from the brains and stored at -70° C. until assayed. Synthesis rates of rat brain catecholamines were estimated by measuring the accumulation of the DA precursor DOPA after NSD 1015 administration by HPLC with electrochemical detection (Puglsey, et al., 1995). Each value represents the mean of four determinations and is expressed as a percent of the control values.

With `Cc1ccc(N2CCN(Cc3ccc4c(c3)NCCN4)CC2)cc1C` [Example 2, 6-[4-(3,4-Dimethylphenyl)piperazin-1-ylmethyl]-1,2,3,4-tetrahydroquinoxaline] the “Omnitech Digiscan Activity Monitor test (result in words)” value ([1]; 1, 3, 10, 30 mg/kg IP) was “dose-dependent decrease”, the ED50 ([1]; Mus musculus, ip) was 16.5 mg/kg and the “DA Synthesis in Rat Hippocampus” value [2] was “+52% of the control values”. For the same molecule, the “DA Synthesis in Rat Striatum” value [2] was “+66% of the control values”.
